Laboratory results taken from patent US6509146B1, “Scalable long-term shelf preservation of sensitive biological solutions and suspensions” (Universal Preservation Technologies, Inc., priority 1996, dated 2003).

Tests used:
[1] = potency of Amphotericin after foam drying and storage; format: physicochemical
Protocol: (7) Freeze-dried samples of Amphotericine B were rehydrated with 5 ml 40wt % sucrose per vial. Then the solutions were transferred into 50 ml sterilized glass vials for future preservation by drying. Before drying, the vials were covered with gray butyl slotted rubber stoppers. The vials were dried inside a vacuum chamber. The vials were sitting on the surface of a stainless steel shelf inside the chamber. The shelf temperature was controlled by circulating ethylene glycol/water antifreeze at a controlled temperature inside the shelf. Before the vacuum was applied the shelf temperature was decreased to 5° C. The hydrostatic pressure inside the chamber was decreased to 0.5 Torr. Under such a conditions the suspension boiled 30 min. The temperature of the shelf was then slowly (during 30 min) increased to 25° C. Visually, stable dry foams inside the vials under these experimental conditions were formed after 3 hours. After an additional 12 hours of drying at room temperature, the chamber was filled with the dry N2 gas and the rubber stoppers in a portion of the vials were pushed down. The vials were removed from the chamber and subsequently sealed with aluminum crimped seal. The samples were assayed right after drying and after 30 day of storage at 27.50 and 40° C. The results are shown in Table 1, together with the results obtained in the next experiment.
Another set of freeze-dried samples of Amphotericin B were rehydrated with 5 ml 40wt % sucrose per vial. The solutions were then transferred into sterilized glass vials for future preservation by drying similar to that described above with additional drying at 45° C. for additional 24 hours. After that, the chamber was filled again with the dry N2 gas, the rubber stoppers were pushed down and the vials were sealed. The samples were assayed right after drying and after 30 day of storage at 27.50 and 40° C.

[2] = Urokinase activity after foam drying and storage; format: physicochemical; details: 40wt % sucrose foam
Protocol: (6) Freezer-dried samples of Urokinase were rehydrated with 2 ml of 40wt % sucrose. The solutions were then transferred to 20 ml sterilized glass vials for future preservation by drying. Before drying, the vials were covered with gray slotted rubber stoppers. The vials were dried inside a vacuum chamber. The vials were sitting on the surface of a stainless steel shelf inside the chamber. The shelf temperature was controlled by circulating ethylene glycol/water antifreeze at a controlled temperature inside the shelf. Before the vacuum was applied the shelf temperature was decreased to 5° C. Then the hydrostatic pressure inside the chamber was decreased to 0.5 Torr. Under such a conditions the suspension boiled 30 min. […] Visually, stable dry foams inside the vials under these experimental conditions were formed during 3 hours. After an additional 12 hours of drying at room temperature, the temperature was increased to 45° C. for an additional 24 hours. After that the chamber was filled with the dry N2 gas, the rubber stoppers were pushed down and the vials were sealed with aluminum crimped seal.
The samples were assayed right after drying and after 30 days of storage at 40° C. After drying the Urokinase, activity was 93% of the initial activity. This decrease was associated with the loss of Urokinase during transformation from initial vials to the vials at which the Urokinase was dried. […]

| Potency of Amphotericin (%) ([1]; Freeze-dried control) | Potency of Amphotericin (%) After 30 days of storage at 27.5° C. ([1]; Td = 25° C.) | Potency of Amphotericin (%) After drying ([1]; Td = 25° C. (maximum temperature during drying)) | Potency of Amphotericin (%) After 30 days of storage at 27.5° C. ([1]; Td = 45° C.) | Potency of Amphotericin (%) After 30 days of storage at 40° C. ([1]; Td = 45° C.) | Potency of Amphotericin (%) After drying ([1]; Td = 45° C.) | Molecule | Urokinase activity, % of the initial activity ([2]; after 30 days of storage at 40° C.) | Urokinase activity, % of the initial activity ([2]; right after drying (max 45° C.)) |
| --- | --- | --- | --- | --- | --- | --- | --- | --- |
| 126% | 114% | 108% | 102% | 104% | 103% | C[C@@H]1[C@H](O)[C@@H](C)/C=C/C=C/C=C/C=C/C=C/C=C/C=C/[C@H](O[C@@H]2O[C@H](C)[C@@H](O)[C@H](N)[C@@H]2O)C[C@@H]2O[C@](O)(C[C@@H](O)C[C@@H](O)[C@H](O)CC[C@@H](O)C[C@@H](O)CC(=O)O[C@H]1C)C[C@H](O)[C@H]2C(=O)O [Amphotericin, Amphotericin B] |  |  |
|  |  |  |  |  |  | Urokinase | 90% | 93% |
